Values quoted from earlier work, collected in patent publication US20250170094A1 (priority 2023, published 2025).
Like-named read-outs stand apart in the source and are kept apart here.

Legend:
[1] = not given; remark: listed apart in the source

Structure (SMILES): CCC(CC)[C@H](NC(C)=O)[C@@H]1[C@H](O)[C@@H](C(=O)O)C[C@H]1NC(=N)N [peramivir, (1S,2S,3R,4R)-3-[(1S)-1-(acetylamino)-2-ethylbutyl]-4-guanidino-2-hydroxycyclopentanecarboxylic acid]
- solubility (pH 1.0): about 59 mg/ml
- solubility (pH≥5): ≤ 20 mg/mL
- oil-water partition coefficient LogP[n-octanol/water] [1]: −1.16
